Tests used:
Type in all cases: cell-based
Conditions in all cases: means ± SD, n = 3
[1] = test system: HepG2 (human hepatocellular carcinoma cell line); assay: MTT anti-proliferative assay, HepG2
In short: (§1)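 Cells seeded at 1 × 10^4–1.2 × 10^4 per well were allowed to adhere 24 h, then exposed 48 h at 37 °C, 5% CO2 to compound at 1.25, 2.5, 5 and 10 μM (DMSO ≤0.1%). MCF-7 and HepG2 were grown in DMEM, HCT116 and BEL7402 in RPMI 1640, each with 10% FBS. MTT (final 2 mg/ml) was added for 4 h; formazan was dissolved in DMSO and read at 492 nm.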

[2] = test system: BEL7402 (human hepatocellular carcinoma cell line); assay: MTT anti-proliferative assay, BEL7402
In short: as §1

[3] = test system: MCF-7 (human breast cancer cell line); assay: MTT anti-proliferative assay, MCF-7
In short: as §1

CC1(C)CC[C@]2(C(=O)OCCn3nnnc3-c3ccccc3)[C@H](O)C[C@]3(C)C(=CC[C@@H]4[C@@]5(C)CC[C@H](O)[C@@](C)(C=O)[C@@H]5CC[C@]43C)[C@@H]2C1 [Compound E, 2-(5-phenyl-1H-tetrazol-1-yl)ethyl (4aR,5R,6aS,6bR,8aR,9S,10S,12aR,12bR,14bS)-9-formyl-5,10-dihydroxy-2,2,6a,6b,9,12a-hexamethyl-1,3,4,5,6,6a,6b,7,8,8a,9,10,11,12,12a,12b,13,14b-octadecahydropicene-4a (2H)-carboxylate]
IC50 values HepG2 ([1]; 48 h incubation): strong activity
IC50 ([1]; Homo sapiens, HepG2, 48 h incubation): 8.89 ± 2.24 µM
IC50 values BEL7402 ([2]; 48 h incubation): strong activity
IC50 ([2]; Homo sapiens, Bel-7402, 48 h incubation): 6.89 ± 1.69 µM
IC50 values MCF-7 ([3]; 48 h incubation): strong activity
IC50 ([3]; Homo sapiens, MCF7, 48 h incubation): 7.59 ± 1.78 µM
